Values quoted from earlier work, collected in US20260007632A1, “FORMULATIONS OF DOCETAXEL” (Zhuhai Beihai Biotech Co., Ltd., priority 2020, published 2026).

Key:
microtubule = conditions: relative to paclitaxel

| solubility in water | volume of ethanol required to dissolve 1 g (at 25° C.) | volume of water required to dissolve 1 g (at 25° C.) | SMILES | potency in inhibiting microtubule depolymerization (microtubule) |
| --- | --- | --- | --- | --- |
| very poor water solubility | – | – | CC(=O)O[C@@]12CO[C@@H]1C[C@H](O)[C@@]1(C)C(=O)[C@H](O)C3=C(C)[C@@H](OC(=O)[C@H](O)[C@@H](NC(=O)OC(C)(C)C)c4ccccc4)C[C@@](O)([C@@H](OC(=O)c4ccccc4)[C@H]21)C3(C)C [docetaxel] | about twice as potent as paclitaxel |
| – | 5 mL | 300 mL | CC(=O)Oc1ccccc1C(=O)O [aspirin] | – |
